Where “and” joins values, the source holds several entries; their conditions need not be identical. Equal values may be shown once. Entries after “also recorded” stand apart in the source; their conditions may differ. Marks after values point to notes of the source that are not given here.
How the values were obtained:
[1] = system: abdominal writhing induced by acetic acid; test: Abdominal writhing assay induced by acetic acid; type: in vivo; settings: oral, mice, acetic acid 0.1N i.p. after 1 hour, writhings counted during 20 minutes
Description: In order to evaluate the peripheral analgesic activity of the compounds, an abdominal writhing assay induced by acetic acid (Table 6) was carried out. In this assay, we could infer that compound ID has an important analgesic activity, inhibiting abdominal writhing by 66%. […] The analgesic activity may be related to the ability of these compounds to inhibit the cytokine TNFα, since it is known that this would be one of the mechanisms that explain the analgesia of molecules such as thalidomide.
The antinociceptive profile was evaluated through the abdominal writhing assay induced by acetic acid in mice. In this assay, Swiss mice from both genders were used, weighing from 21 to 28 grams, fasted for a time period of about 8 hours. The test substance was administered orally and had, as a carrier, 5% gum arabic. After 1 hour, the administration of acetic acid 0.1N (0.1 mL/10 g weight) was performed in the peritoneal cavity of the animals. Ten minutes after the injection of acetic acid, writhings were counted during 20 minutes.

[2] = system: leukocyte infiltration, peritonitis induced by thioglycolate; test: Peritonitis assay induced by 3% thioglycolate; type: in vivo; settings: 300 μMol/Kg orally, mouse, 3% thioglycolate i.p., 4 h
Description: In a second assay, the number of total leukocytes (10^6/mL) was evaluated in order to evaluate the ability to inhibit their infiltration in the inflammatory process.
The mice were treated with the substances being analyzed or carrier and after 1 h of oral administration, they were simultaneously subjected to the peritonitis assay, by administering intraperitoneally 1 ml of a 3% thioglycolate solution. 4 h after the administration of thioglycolate, the peritoneal cavity was washed with 3 ml of a HANKS solution (Balanced salt solution, free of Ca^2+ and Mg^2+). Next, the peritoneal wash was analyzed and the total counting of white blood cells was made in a Newbauer's chamber under an optical microscope with a 40× objective.

K562 cells = test: Cell viability in K562 culture (trypan blue); type: cell-based, human
Description: (§1) The human leukemia cell line K562 ATCC (American Type Culture Collection), Philadelphia, Pa., USA was used. The cells were cultured in DMEM median (Dulbecco's Modified Eagle Medium, Invitrogen, USA) containing 10% of fetal bovine serum and glutamine. The cells were maintained at 37° C. under a 5% CO2 atmosphere. For the experiments, the cells were incubated at a density of 1×10^5 cells/mL. In order to carry out the culture with hemin (30 uM), it was added 72 hours before the beginning of the experiment with the desired compound.
(§2) The 0-hour time consisted in removing non-treated K562 cells. From this point, the respective compounds were added at the desired concentrations (5, 30, 60 and 100 uM), the cells were then maintained for […] under culture, without a new addition of any compound or substitution of the culture medium. Cell collections were performed at the following times: 0, 24, 48, 72 and 96 hours. The morphology of the cells was analyzed at these points through cytospin slides stained with Leishman and the cell viability was performed by staining with trypan blue in a Neuberger's chamber.

gamma-globin mRNA = test: Gamma-globin gene expression in K562 cell culture by Real Time PCR; type: cell-based, human; settings: for gene expression of gamma-globin: K562 erythroleukemic cells, Real Time PCR, 5-100 μM, 24-96 h
Description: as §1, §2
The extraction method with TRIzol reagent (Gibco-BRL, Gaithersburg, Md.) according to the manufacturer's instructions was used in order to obtain the RNA from K562. The sample containing K562 and TRIzol was incubated for 5 minutes at room temperature in order to achieve complete dissociation of the nucleoproteic complexes, 200 μL of chloroform (CHCl3) was added and thoroughly stirred, and incubation was again performed by 5 minutes at room temperature. After centrifugation for 15 minutes at 19,000 g at a temperature of 4° C., the supernatant was obtained and stored in another tube, proceeding immediately to the step of precipitation with 500 μL of cold isopropanol. After homogenization, a new incubation was carried out for 10 minutes at room temperature, followed by centrifugation for 10 minutes at 19,000 g at 4° C. The supernatant was disposed of and 800 μL of 70% cold ethanol was added to the precipitate, with a new centrifugation being carried out for 5 minutes at 14,000 at 4° C. […]
The RNA samples obtained were subjected to the complementary DNA (cDNA) synthesis using the Superscript III RTTM kit (Invitrogen, Life Technologies). After reading in a spectrophotometer (Gene Quant-Pharmacia, USA) and quantification, 3 μg of RNA were treated with the enzyme DNase I (Invitrogen, Life Technologies), for removal of contaminant DNA. […]
After reading in a spectrophotometer (Gene Quant-Pharmacia, USA) and quantification, cDNA aliquots were used as template in quantitative real-time PCR reactions. The technique consists in optically monitoring the fluorescence emitted during the PCR reaction, by means of the binding of a specific probe or dye to the newly synthesized strand. […]

Row | Structure (SMILES) | Average (abdominal writhings) [1] | Cell Number avg (×106), total leukocytes [2] | Inhibition % (leukocyte infiltrate) [2] | cell viability (K562 cells; at 0 h, pattern maintained during the assay) | concentration showing activity on gamma-globin expression (gamma-globin mRNA; K562 cells, 48 hours) | gene expression of gamma-globin (gamma-globin mRNA) | cell viability (K562 cells; K562 assays with and without hemin, at the concentrations used) | gene expression of gamma-globin in the presence of hemin versus absence of hemin (gamma-globin mRNA; K562 cells, hemin 30 uM, compared to the control) | Inhibition % (abdominal writhing) [1]
1 | O=C1c2ccccc2C(=O)N1CO[N+](=O)[O-] [Compound IA, (1,3-dioxo-1,3-dihydro-2H-isoindol-2-yl)methyl nitrate] | 28.6 | 4.9 ×106 | 12.5% | – | – | – | – | – | –
2 | Nc1ccc(S(=O)(=O)NO)cc1 [Compound IIA, 4-amino-N-hydroxybenzenesulphonamide] | 30.4 | 4.0 ×106 | 28.57% | 97% | 5 µM | higher activity than the control; also recorded: higher than the increase provided by compound IE | – | – | –
3 | O=C1c2ccccc2C(=O)N1c1ccc(CCO[N+](=O)[O-])cc1 [Compound IE, 2-[4-(1,3-dioxo-1,3-dihydro-2H-isoindol-2-yl)phenyl]ethyl nitrate] | – | 4.13 ×106 | 26.25% | – | – | increasing the gene expression of gamma-globin | higher than 90% | did not show a significantly higher activity | –
4 | O=C1c2ccccc2C(=O)N1c1ccc(CO[N+](=O)[O-])cc1 [ID, 4-(1,3-dioxo-1,3-dihydro-2H-isoindol-2-yl)benzyl nitrate] | 16.2 | 3.8 ×106 | 32.14% | – | – | – | – | – | 66% and 66.03%
5 | O=C1c2ccccc2C(=O)N1CCO[N+](=O)[O-] [IB, 2-(1,3-dioxo-1,3-dihydro-2H-isoindol-2-yl)ethyl nitrate] | 39.2 | 2.73 ×106 | 51.25* % | – | – | – | – | – | 23.22%
